The values below come from publication PMC5902575, “Characterization of AiiK, an AHL lactonase, from Kurthia huakui LAM0618^T and its application in quorum quenching on Pseudomonas aeruginosa PAO1” (Scientific Reports, 2018).

This assay deals with T1, AiiK (Kurthia huakuii, UniProt Z9B3F0ZFT1).
T1 construct: primer-encoded N-terminus MCQNKKLY
Nature of the assay: HPLC of remaining AHL at […] nm, Michaelis-Menten fit. It counts as biochemical. The note with it: 10 mM PBS pH 7.4, 25 °C, 10 min, 4 μg/mL enzyme, 25–150 μM substrate; unit given as mM^−1 in the source; unit of the source corrected.

T1 sequence (Z9B3F0ZFT1 1-278 limits assumed): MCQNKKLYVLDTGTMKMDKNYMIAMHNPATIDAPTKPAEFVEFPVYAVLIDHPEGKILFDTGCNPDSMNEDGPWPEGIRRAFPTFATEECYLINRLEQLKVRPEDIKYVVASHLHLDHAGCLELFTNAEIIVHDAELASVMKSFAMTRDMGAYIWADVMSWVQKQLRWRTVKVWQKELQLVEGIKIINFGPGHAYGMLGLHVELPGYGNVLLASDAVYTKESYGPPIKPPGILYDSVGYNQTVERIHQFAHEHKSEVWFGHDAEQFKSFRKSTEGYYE

Compound `CCCC(=O)CC(=O)N[C@H]1CCOC1=O` [3-Oxo-C6-HSL] returned a Mean ± SD / Km(mM^-1) of 0.066 ± 0.02 mM. With `CCCCCC(=O)N[C@H]1CCOC1=O` [C6-HSL], the Mean ± SD / Km(mM^-1) turned out to be 0.204 ± 0.031 mM.

`CCCCCCCCCC(=O)N[C@H]1CCOC1=O` [C10-HSL] yielded a Mean ± SD / Km(mM^-1) of 0.315 ± 0.065 mM. For `CCCCCCCCCCCCCC(=O)N[C@H]1CCOC1=O` [C14-HSL], the Mean ± SD / Km(mM^-1) amounted to 0.036 ± 0.004 mM.
